Reference: patent publication US20240270801A1, “EPITOPE PEPTIDE OF HUMAN ALPHA-SYNUCLEIN AND PHARMACEUTICAL COMPOSITION INCLUDING SAID PEPTIDE” (Sumitomo Pharma Co., Ltd., priority 2021, published 2024)
No end group written: not given here. KLH = keyhole limpet hemocyanin

Key:
aggregated human αSyn [1] = assay: Antibody-inducing ability in cynomolgus monkeys: ELISA antibody titer with respect to aggregated human αSyn; assay type: in vivo; settings: i.m. three times at 2-week interval, Alum; AJ conjugates 2,000 μg/monkey, KLH-DMPVDPDN 75 μg/monkey; FIG. 4B
Experimental: The antibody-inducing ability of the AJ-human αSyn peptide conjugate with respect to human αSyn and aggregated human αSyn in cynomolgus monkeys was evaluated. The AJ-human αSyn peptide conjugates (AJ-p54, AJ-p150, AJ-p283, AJ-p142, and AJ-p273) (2,000 μg/monkey) and KLH-DMPVDPDN (75 μg/monkey) were intramuscularly administered to cynomolgus monkeys (males, 3 to 7 years old, SNBL, Ltd.) three times at a 2-week interval using Alum (InvivoGen, 200 μg/monkey) as an adjuvant. Blood was collected before administration and 4, 6, 8, and 10 weeks after the first administration to recover the serum. ELISA was performed by the following method.
96-well plates were coated with human αSyn (Sigma-Aldrich) or aggregated human αSyn (StressMarq Biosciences Inc.) at 0.2 μg/well or 15 ng/well. After washing with PBST once, blocking was performed with 3% skim milk (FUJIFILM Wako Pure Chemical Corporation). After washing with PBST three times, diluted serum was added to cause a reaction at room temperature for 1 hour. Furthermore, after washing with PBST three times, Goat anti-Monkey IgG-HRP (Bio-Rad Laboratories, Inc.) was added to cause a reaction at room temperature for 1 hour. […] An equal volume of a TMB Stop Solution (KPL) was added to stop the reaction, and the absorbance at 450 nm was measured.

aggregated human αSyn [2] = biological target: aggregated human αSyn (Homo sapiens, UniProt P37840); assay: Aggregated human αSyn-neutralizing effect of antibody induced in mice: phosphorylation of human αSyn in SH-SY5Y cells; assay type: cell-based; design: purchased Stress Marq (StressMarq Biosciences Inc.); settings: antibody (100 μg/mL) induced in C57BL/6 mice by the vaccine; FIG. 1B, isotype control = 100
Experimental: The aggregated human αSyn-neutralizing effect of the antibody induced in the mice by the AJ-human αSyn peptide conjugate (AJ-p54) produced in Example 1 was evaluated. Physiological saline or the AJ-human αSyn peptide conjugate (250 μg/mouse) was intramuscularly administered to C57BL/6 mice (males, 6 weeks old, CLEA Japan, Inc.) four times at a 2-week interval using CFA (DIFCO) as an adjuvant. Furthermore, KLH-DMPVDPDN (25 μg/mouse) was administered using Alum (InvivoGen, 50 μg/mouse) as an adjuvant. Two weeks after the fourth administration, serum was recovered. After recovering the antibodies comprised in the serum by Protein G HP SpinTrap (Cytiva), the human αSyn- and aggregated human αSyn-neutralizing effect was evaluated by a method described below.
As the human αSyn- and aggregated human αSyn-neutralizing effect, the influence on phosphorylation of human αSyn in SH-SY5Y cells (ATCC) was evaluated. The SH-SY5Y cells were seeded in a 96-well plate at 2×10^4 cells/well and cultured under the conditions of 37° C. and 5% CO2. […] After fixing the cells with a 4% paraformaldehyde/phosphate buffer solution (FUJIFILM Wako Pure Chemical Corporation), phosphorylated human αSyn was stained with a fluorescence-labeled anti-phosphorylated αSyn antibody (Cell Signaling). The amount of phosphorylated human αSyn was evaluated by image analysis using ArrayScan (Thermo Fisher Scientific Inc.). […]

human αSyn = assay: Antibody-inducing ability in mice: ELISA antibody titer of immune serum with respect to human αSyn; assay type: in vivo, mouse
Outline: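 Female balb/c mice, 6 weeks old, immunized i.m. twice 2 weeks apart with peptide conjugates (250 μg/mouse; KLH-DMPVDPDN 25 μg/mouse) plus Alum 50 μg/mouse. Serum taken 2 weeks after second dose. IgG titer measured by ELISA on human αSyn (0.2 μg/well) or aggregated αSyn (15 ng/well), A450; titers expressed as log relative to control conjugate.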

## KLH-C-DMPVDPDN ({KLH}-CDMPVDPDN) [KLH-DMPVDPDN, comparison vaccine, reference compound]
Aggregated human αSyn [1]
  Induction of the antibody to aggregated human αSyn in cynomolgus monkeys: not induced
Aggregated human αSyn [2]
  Phosphorylation of human αSyn in SH-SY5Y cells to which aggregated human αSyn was added: inhibited
Human αSyn; Example 2, balb/c mice
  Induction of the antibody to human αSyn in the mouse serum (in words): induction of the antibody to human αSyn was also confirmed
Human αSyn; Example 2, balb/c mice, i.m. twice at 2-week interval, Alum, AJ conjugates 250 μg/mouse, KLH-DMPVDPDN 25 μg/mouse, serum 2 weeks after second administration
  Antibody titer with respect to human αSyn (N = 4 − 6, mean ± standard deviation): 5461 ± 2365
Human αSyn; Example 4, balb/c mice
  Induction of the antibody to human αSyn (in words): induced the antibody to human αSyn
Human αSyn; Example 4, balb/c mice, i.m. twice at 2-week interval, Alum, AJ conjugates 250 μg/mouse, KLH-DMPVDPDN 25 μg/mouse
  Antibody titer with respect to human αSyn (mean ± standard deviation): 1792 ± 1536
